According to PubChem BioAssay (NCI):
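Interpolation was linear, between the two tested concentrations surrounding the appropriate level; five concentrations were tested over 48 hours in 96-well plates. Abbreviation: GI50, concentration required for 50% inhibition of growth. The concentration for full growth arrest is given as TGI.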

Tests used:
Experiment in all cases: inhibition of tumour cell growth, NCI panel, 48 h
[1] = system: SF-539 CNS
[2] = system: UACC-62 melanoma
[3] = system: SW-620 colon
[4] = system: HS 578T breast
[5] = system: KM12 colon
[6] = system: T-47D breast
[7] = system: NCI-H226 lung
[8] = system: MDA-MB-435
[9] = system: OVCAR-3 ovarian
[10] = system: TK-10 renal
[11] = system: HOP-62 NSCLC
[12] = system: SR leukemia
[13] = system: MDA-MB-468 breast
[14] = system: RPMI-8226 leukemia
[15] = system: COLO 205 colon
[16] = system: NCI-H460 lung
[17] = system: SK-OV-3 ovarian
[18] = system: EKVX NSCLC
[19] = system: MCF7 breast
[20] = system: SK-MEL-5 melanoma
[21] = system: SNB-75 CNS
[22] = system: SF-295 CNS
[23] = system: SK-MEL-2 melanoma
[24] = system: NCI-H522 lung
[25] = system: A549 NSCLC
[26] = system: HCC-2998 colon
[27] = system: HCT-116 colon
[28] = system: SNB-19 CNS
[29] = system: SK-MEL-28 melanoma
[30] = system: OVCAR-8 ovarian
[31] = system: MALME-3M melanoma
[32] = system: UO-31 renal
[33] = system: SF-268 CNS
[34] = system: NCI-H23 lung
[35] = system: SN12C renal
[36] = system: 786-0 renal
[37] = system: MDA-MB-231 breast
[38] = system: ACHN renal
[39] = system: HOP-92 NSCLC
[40] = system: MOLT-4 leukemia
[41] = system: CAKI-1 renal
[42] = system: CCRF-CEM leukemia
[43] = system: OVCAR-5 ovarian
[44] = system: DU-145 prostate
[45] = system: RXF 393 renal
[46] = system: K-562 leukemia
[47] = system: M14 melanoma
[48] = system: A498 renal
[49] = system: BT-549 breast
[50] = system: HL-60(TB) leukemia
[51] = system: PC-3 prostate
[52] = system: HCT-15 colon
[53] = system: OVCAR-4 ovarian
[54] = system: NCI/ADR-RES ovarian
[55] = system: U251 CNS
[56] = system: IGROV1 ovarian
[57] = system: UACC-257 melanoma
[58] = system: HT29 colon
[59] = system: LOX IMVI melanoma

For `Cn1cc(-c2cc(N)n3nc(-c4cn(C)c5ccccc45)cc3n2)c2cc(F)ccc21`, the GI50 [1] was 1.76 µM, the TGI [1] was 3.34 µM and the GI50 [2] was 1.68 µM. For the same compound, the TGI [2] was 3.09 µM, the GI50 [3] was 2.01 µM and the TGI [3] was 4.05 µM. It also gave a GI50 [4] of 2.39 µM, a TGI [4] of 6.45 µM and a GI50 [5] of 2.47 µM. For the same compound, the TGI [5] was 6.13 µM, the GI50 [6] was 2.63 µM and the TGI [6] was 8.91 µM. It also gave a GI50 [7] of 21.7 µM, a TGI [7] of 68.5 µM and a GI50 [8] of 1.78 µM. The TGI [8] was 3.33 µM, the GI50 [9] was 2.69 µM and the TGI [9] was 6.53 µM. It also gave a GI50 [10] of 2.01 µM, a TGI [10] of 8.26 µM and a GI50 [11] of 1.96 µM. For the same compound, the TGI [11] was 4.82 µM, the GI50 [12] was 2.16 µM and the TGI [12] was 7.54 µM. It also gave a GI50 [13] of 1.92 µM, a TGI [13] of 4.11 µM and a GI50 [14] of 2.93 µM. It also gave a TGI [14] of 8.56 µM, a GI50 [15] of 1.89 µM and a TGI [15] of 3.57 µM. It also gave a GI50 [16] of 2.02 µM, a TGI [16] of 4.2 µM and a GI50 [17] of 3.32 µM. The TGI [17] was 12.5 µM, the GI50 [18] was 3.02 µM and the TGI [18] was 15.7 µM. It also gave a GI50 [19] of 1.77 µM, a TGI [19] of 3.95 µM and a GI50 [20] of 1.87 µM. The TGI [20] was 3.89 µM, the GI50 [21] was 12.9 µM and the TGI [21] was 28.6 µM. It also gave a GI50 [22] of 1.78 µM, a TGI [22] of 3.68 µM and a GI50 [23] of 1.82 µM. The TGI [23] was 3.63 µM, the GI50 [24] was 1.65 µM and the TGI [24] was 3.42 µM. The GI50 [25] was 2.17 µM, the TGI [25] was 6.44 µM and the GI50 [26] was 1.78 µM. For the same compound, the TGI [26] was 3.32 µM, the GI50 [27] was 1.76 µM and the TGI [27] was 3.18 µM. For the same compound, the GI50 [28] was 3.09 µM, the TGI [28] was 12.7 µM and the GI50 [29] was 1.78 µM. For the same compound, the TGI [29] was 3.44 µM, the GI50 [30] was 1.97 µM and the TGI [30] was 3.95 µM. It also gave a GI50 [31] of 1.72 µM, a TGI [31] of 3.14 µM and a GI50 [32] of 1.62 µM. It also gave a TGI [32] of 3.06 µM, a GI50 [33] of 3.35 µM and a TGI [33] of 13.4 µM. It also gave a GI50 [34] of 2.08 µM, a TGI [34] of 4.78 µM and a GI50 [35] of 1.71 µM. The TGI [35] was 3.14 µM, the GI50 [36] was 1.51 µM and the TGI [36] was 2.92 µM. The GI50 [37] was 1.97 µM, the TGI [37] was 3.66 µM and the GI50 [38] was 1.77 µM. For the same compound, the TGI [38] was 3.45 µM, the GI50 [39] was 2.06 µM and the TGI [39] was 4.2 µM. The GI50 [40] was 2.44 µM, the TGI [40] was 7.25 µM and the GI50 [41] was 1.84 µM. It also gave a TGI [41] of 3.98 µM, a GI50 [42] of 3.19 µM and a TGI [42] of 24.2 µM. It also gave a GI50 [43] of 2.37 µM, a TGI [43] of 6.49 µM and a GI50 [44] of 4.15 µM. It also gave a TGI [44] of 22.3 µM, a GI50 [45] of 1.97 µM and a TGI [45] of 3.72 µM. For the same compound, the GI50 [46] was 2.72 µM, the TGI [46] was 7.52 µM and the GI50 [47] was 1.83 µM. For the same compound, the TGI [47] was 3.52 µM, the GI50 [48] was 14.6 µM and the TGI [48] was 29 µM. For the same compound, the GI50 [49] was 10.5 µM, the TGI [49] was 25.3 µM and the GI50 [50] was 2.1 µM. It also gave a TGI [50] of 5.11 µM, a GI50 [51] of 2.2 µM and a TGI [51] of 5.54 µM. The GI50 [52] was 1.79 µM, the TGI [52] was 4.02 µM and the GI50 [53] was 2.49 µM. For the same compound, the TGI [53] was 6.55 µM, the GI50 [54] was 2.41 µM and the TGI [54] was 6.26 µM. For the same compound, the GI50 [55] was 1.82 µM, the TGI [55] was 3.51 µM and the GI50 [56] was 2.19 µM. For the same compound, the TGI [56] was 5.18 µM, the GI50 [57] was 1.75 µM and the TGI [57] was 3.39 µM. It also gave a GI50 [58] of 1.74 µM and a TGI [58] of 3.34 µM.
Compound `Cc1ccc(S(=O)(=O)c2nc(-c3ccccc3)oc2S(=O)(=O)CC(=O)N2CCCC2)cc1` has a GI50 [1] of 1.54 µM, a TGI [1] of 2.91 µM and a GI50 [2] of 4.53 µM. The TGI [2] was 16.5 µM, the GI50 [3] was 0.801 µM and the TGI [3] was 2.24 µM. For the same compound, the GI50 [4] was 3.68 µM, the TGI [4] was 28.2 µM and the GI50 [5] was 14.9 µM. The TGI [5] was 32 µM, the GI50 [6] was 1.78 µM and the TGI [6] was 4.94 µM. The GI50 [7] was 13.3 µM, the TGI [7] was 34.7 µM and the GI50 [8] was 3.08 µM. It also gave a TGI [8] of 13.8 µM, a GI50 [9] of 1.27 µM and a TGI [9] of 2.66 µM. It also gave a GI50 [10] of 1.7 µM, a TGI [10] of 3.15 µM and a GI50 [11] of 14.4 µM. The TGI [11] was 31 µM, the GI50 [12] was 1.49 µM and the TGI [12] was 6.6 µM. It also gave a GI50 [13] of 0.587 µM, a TGI [13] of 1.97 µM and a GI50 [14] of 2.68 µM. For the same compound, the TGI [14] was over 100 µM, the GI50 [15] was 1.89 µM and the TGI [15] was 4.38 µM. The GI50 [16] was 7 µM, the TGI [16] was 22.5 µM and the GI50 [17] was 15.6 µM. The TGI [17] was 30.5 µM, the GI50 [18] was 2.44 µM and the TGI [18] was 7.76 µM. For the same compound, the GI50 [19] was 1.17 µM, the TGI [19] was 2.9 µM and the GI50 [20] was 12.5 µM. The TGI [20] was 25.2 µM, the GI50 [21] was 3.89 µM and the TGI [21] was 17.4 µM. For the same compound, the GI50 [22] was 12.2 µM, the TGI [22] was 25 µM and the GI50 [23] was 13.1 µM. For the same compound, the TGI [23] was 26.2 µM, the GI50 [24] was 1.06 µM and the TGI [24] was 2.49 µM. For the same compound, the GI50 [25] was 13.1 µM, the TGI [25] was 29.1 µM and the GI50 [26] was 11.2 µM. The TGI [26] was 24.1 µM, the GI50 [27] was 1.52 µM and the TGI [27] was 3.34 µM. For the same compound, the GI50 [28] was 14.5 µM, the TGI [28] was 27.6 µM and the GI50 [29] was 1.82 µM. It also gave a TGI [29] of 3.54 µM, a GI50 [30] of 7.2 µM and a TGI [30] of 25.1 µM. The GI50 [31] was 1.55 µM, the TGI [31] was 2.95 µM and the GI50 [32] was 1.36 µM. The TGI [32] was 2.66 µM, the GI50 [33] was 12.2 µM and the TGI [33] was 33.2 µM. The GI50 [34] was 8.06 µM, the TGI [34] was 23.6 µM and the GI50 [59] was 1.45 µM. For the same compound, the TGI [59] was 2.82 µM, the GI50 [35] was 6.68 µM and the TGI [35] was 19.6 µM. It also gave a GI50 [36] of 1.45 µM, a TGI [36] of 2.93 µM and a GI50 [37] of 1.63 µM. The TGI [37] was 3.11 µM, the GI50 [38] was 1.36 µM and the TGI [38] was 2.65 µM. The GI50 [39] was 2.71 µM, the TGI [39] was 8.32 µM and the GI50 [40] was 1.73 µM. For the same compound, the TGI [40] was 5.22 µM, the GI50 [41] was 1.21 µM and the TGI [41] was 2.5 µM. For the same compound, the GI50 [42] was 0.529 µM, the TGI [42] was 2.95 µM and the GI50 [43] was 11 µM. For the same compound, the TGI [43] was 23.4 µM, the GI50 [44] was 1.63 µM and the TGI [44] was 3.37 µM. For the same compound, the GI50 [45] was 1.08 µM, the TGI [45] was 2.41 µM and the GI50 [47] was 1.77 µM. For the same compound, the TGI [47] was 4.15 µM, the GI50 [48] was 11.9 µM and the TGI [48] was 24.3 µM. For the same compound, the GI50 [49] was 3.89 µM, the TGI [49] was 11.8 µM and the GI50 [50] was 0.978 µM. The TGI [50] was 3.48 µM, the GI50 [51] was 11.8 µM and the TGI [51] was 30.7 µM. The GI50 [52] was 1.4 µM, the TGI [52] was 2.92 µM and the GI50 [54] was 11.4 µM. The TGI [54] was 65 µM, the GI50 [55] was 15.5 µM and the TGI [55] was 29.7 µM. It also gave a GI50 [56] of 6.54 µM, a TGI [56] of 20.8 µM and a GI50 [57] of 1.73 µM. For the same compound, the TGI [57] was 3.73 µM, the GI50 [58] was 1.54 µM and the TGI [58] was 4.05 µM.
